The text below walks through data of US20220388962A1 (Biohaven Therapeutics Ltd., priority 2019, published 2022).

Counter-ions that a name gives are not always drawn.

Chain of TDP-43 (Q13148 whole entry): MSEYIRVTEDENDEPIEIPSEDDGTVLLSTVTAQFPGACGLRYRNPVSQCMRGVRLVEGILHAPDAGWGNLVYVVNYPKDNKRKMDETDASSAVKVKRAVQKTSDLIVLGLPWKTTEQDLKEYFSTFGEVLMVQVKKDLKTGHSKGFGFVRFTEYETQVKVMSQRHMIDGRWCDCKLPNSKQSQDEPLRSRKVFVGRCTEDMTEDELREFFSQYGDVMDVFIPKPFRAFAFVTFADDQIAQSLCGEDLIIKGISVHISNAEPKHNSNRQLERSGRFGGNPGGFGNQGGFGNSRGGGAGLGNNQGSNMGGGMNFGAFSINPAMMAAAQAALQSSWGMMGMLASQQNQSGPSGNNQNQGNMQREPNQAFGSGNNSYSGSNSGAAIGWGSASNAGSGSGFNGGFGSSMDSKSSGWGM

This test addresses TDP-43 (Homo sapiens, UniProt Q13148). The test is described as follows: TDP-43-DNA alpha-screen assay (bt-TAR-32 displacement). The class given is binding. To be noted: bt-TAR-32 0.125 nM, 15 ng/ml TDP-43. As for the experimental part:
Alpha-screen assay: Displacement of bt-TG6 binding was measured using AlphaScreen technology as previously described (Cassel, J. A. et al., Journal of Biomolecular Screening, 2010, 15, 1099-1106; Cassel, J. A.; Reitz, A. B. et al. The effects of small molecule inhibitors of nucleic acid binding to TDP-43 on TDP-43 metabolism and function. Biochimie, 2012, 94, 1974-1981).
Test compounds were diluted in assay buffer (25 mM Tris [pH 7.4], 0.1% bovine serum albumin [BSA], 0.1% Triton X-100) at 4× the desired final concentration. Dilutions of test compound (50 to 0.02 μM in half-log dilutions with a no compound control well) were pre-incubated with TDP-43 (5 μl of 60 ng/mL) pre-bound to AlphaScreen® anti-GST acceptor beads (5 μl of 40 μg/mL) in 15 μl volume for 30 minutes at 23° C. with shaking. Assays were initiated by the addition of 5 μl bt-TAR-32 (5′-CTGCTTTTTGCCTGTACTGGGTCTCTGTGGTT-3′) 0.5 nM pre-bound to AlphaScreen® strepavidin donor beads (40 μg/mL). After incubation in the dark at 23° C. for 90 minutes with shaking, the AlphaScreen® signal was measured on a Synergy 2 plate reader (BioTek, Winooski, Vt.). IC50 values were determined from nonlinear regression fits of the data to a Sigmoidal dose response variable slope model in GraphPad Prism. Final assay conditions are 25 mM Tris [pH 7.4], 0.1% bovine serum albumin [BSA], 0.100 Triton X-100, 15 ng/ml TDP-43, 0.125 nM bTAR32, 10 ug/ml […].
On the technique in general: In Alpha technology, singlet oxygen from a donor bead excites a nearby acceptor bead.
As a reminder, the IC50 is the point on the concentration scale where inhibition reaches its midpoint. As for `COc1ccc(CN(C)CCCNc2cc(-c3ccc(OC)cc3)nc3ccccc23)cc1` [Example 60, N^1-(4-Methoxybenzyl)-N^3-(2-(4-methoxyphenyl)quinolin-4-yl)-N^1-methyl propane-1,3-diamine], the IC50 came out at 1970 nM.

Turning to `COc1ccc(-c2cc(NC3CCC(NCCCNC(=O)OC(C)(C)C)CC3)c3ccccc3n2)cc1` (stereo not shown) [Example 61, tert-Butyl(3-((4-((2-(4-methoxyphenyl)quinolin-4-yl)amino)cyclohexyl)amino)propyl)carbamate], the IC50 was found to be 1350 nM.

Take `COc1ccc(-c2cc(NCCCNCC3CCN(C(=O)OC(C)(C)C)CC3)c3ccccc3n2)cc1` [Example 62, tert-Butyl 4-{[(3-{[2-(4-methoxyphenyl)quinolin-4-yl]amino}propyl)amino]methyl}piperidine-1-carboxylate]: the IC50 is 1160 nM.

With `COc1ccc(-c2cc(NCCCNCCCNc3ccncc3)c3ccccc3n2)cc1` [Example 63, N^1-(2-(4-methoxyphenyl)quinolin-4-yl)-N^3-(3-(pyridin-4-ylamino)propyl)propane-1,3-diamine dihydrochloride], the IC50 worked out at 100 nM.

For `COc1ccc(-c2cc(NC3CCN(CCCN4C(=O)c5ccccc5C4=O)CC3)c3ccccc3n2)cc1` [Example 64, 2-(3-(4-((2-(4-Methoxyphenyl)quinolin-4-yl)amino)piperidin-1-yl)propyl) isoindoline-1,3-dione dihydrochloride], the IC50 worked out at 3600 nM.

As to `COc1ccc(-c2cc(NCC3CCCN(CCCN4C(=O)c5ccccc5C4=O)C3)c3ccccc3n2)cc1` (stereo not shown) [Example 65, 2-(3-(3-(((2-(4-Methoxyphenyl)quinolin-4-yl)amino)methyl)piperidin-1-yl)propyl)isoindoline-1,3-dione], the IC50 worked out at 730 nM.

As to `COc1ccc(-c2cc(NCCCNCCCNS(C)(=O)=O)c3ccccc3n2)cc1` [Example 66, N-(3-((3-((2-(4-Methoxyphenyl)quinolin-4-yl)amino)propyl)amino)propyl) methanesulfonamide hydrochloride], the concentration for half-maximal inhibition (IC50) turned out to be 1410 nM.

For the compound `COc1ccc(-c2cc(NCCC3CCCCN3CCCN3C(=O)c4ccccc4C3=O)c3ccccc3n2)cc1` (stereo not shown) [Example 67, 2-(3-(2-(2-((2-(4-Methoxyphenyl)quinolin-4-yl)amino)ethyl)piperidin-1-yl)propyl) isoindoline-1,3-dione], the IC50 came to 290 nM.

Take `COc1ccc(-c2cc(NCCCN3CCN4CCCC4C3)c3ccccc3n2)cc1` (stereo not shown) [Example 68, N-(3-(Hexahydropyrrolo[1,2-a]pyrazin-2(1H)-yl)propyl)-2-(4-methoxyphenyl)quinolin-4-amine dihydrochloride]: the IC50 worked out at 2160 nM.

Take `COc1ccc(-c2cc(NC3CCN(C4CCN(C)CC4)CC3)c3ccccc3n2)cc1` [Example 69, 2-(4-Methoxyphenyl)-N-(1′-methyl-[1,4′-bipiperidine]-4-yl)quinolin-4-amine]: the IC50 came to 470 nM.

Consider `COc1ccc(-c2cc(NCCCNC3CCC4CN(Cc5ccccc5)CC43)c3ccccc3n2)cc1` (stereo not shown) [Example 70, N^1-(2-Benzyloctahydrocyclopenta[c]pyrrol-4-yl)-N^3-(2-(4-methoxyphenyl)quinolin-4-yl)propane-1,3-diamine trihydrochloride], for which the IC50 stood at 170 nM.

As for `COc1ccc(-c2cc(NCCCNCC3CCN(CC4CC4)CC3)c3ccccc3n2)cc1` [Example 71, N^1-((1-(Cyclopropylmethyl)piperidin-4-yl)methyl)-N^3-(2-(4-methoxyphenyl)quinolin-4-yl)propane-1,3-diamine trihydrochloride], the IC50 worked out at 100 nM.

With `COc1ccc(-c2cc(NCCCN3CCC(C(N)=O)CC3)c3ccccc3n2)cc1` [Example 72, 1-(3-((2-(4-Methoxyphenyl)quinolin-4-yl)amino)propyl)piperidine-4-carboxamide dihydrochloride], the IC50 amounted to 930 nM.

For `COc1ccc(-c2cc(NCCCN3CCN(C)CC3)c3ccccc3n2)cc1` [Example 73, 2-(4-Methoxyphenyl)-N-(3-(4-methylpiperazin-1-yl)propyl)quinolin-4-amine], the IC50 came to 1710 nM.

Consider `COc1ccc(-c2cc(NCCN3CCN(C)CC3)c3ccccc3n2)cc1` [Example 74, 2-(4-Methoxyphenyl)-N-(2-(4-methylpiperazin-1-yl)ethyl)quinolin-4-amine], for which the IC50 came out at 1850 nM.

Consider `COc1ccc(-c2cc(NCCCN3CCC(O)CC3)c3ccccc3n2)cc1` [Example 75, 1-(3-((2-(4-Methoxyphenyl)quinolin-4-yl)amino)propyl)piperidin-4-ol], for which the IC50 came out at 590 nM.

For the compound `COc1ccc(-c2cc(NCCCN3CCOCC3)c3ccccc3n2)cc1` [Example 76, 2-(4-Methoxyphenyl)-N-(3-morpholinopropyl)quinolin-4-amine], the IC50 is 6280 nM.

For the compound `COc1ccc(-c2cc(NCCCN(C)CCCNC(=O)Cc3c(C)c4ccc(N)cc4oc3=O)c3ccccc3n2)cc1` [Example 77, 2-(7-Amino-4-methyl-2-oxo-2H-chromen-3-yl)-N-(3-((3-((2-(4-methoxyphenyl)quinolin-4-yl)amino)propyl)(methyl)amino)propyl)acetamide trihydrochloride], the concentration for half-maximal inhibition (IC50) stood at 250 nM.

Regarding `COc1ccc(-c2cc(NCCCN(C)CCCNS(=O)(=O)c3cccc4c(N(C)C)cccc34)c3ccccc3n2)cc1` [Example 78, 5-(dimethylamino)-N-{3-[(3-{[2-(4-methoxyphenyl)quinolin-4 yl]amino}propyl)(methyl)amino]propyl}naphthalene-1-sulfonamide], the IC50 was determined as 1260 nM.

With `COc1cc2nc(-c3ccc(N4CCNCC4)cc3)cc(N[C@H]3C[C@@H](N)C3)c2cc1OC` [Example 79], the IC50 was 20 nM.

As for `COc1cc2nc(-c3ccc(N4CCNCC4)cc3)cc(N[C@H]3C[C@H](N)C3)c2cc1OC` [Example 80], the IC50 came to 20 nM.

In the case of `COc1cc2nc(-c3ccc(N4CCNCC4)cc3)cc(N[C@H]3CC[C@H](N)CC3)c2cc1OC` [Example 81, (1R,4R)—N^1-(6,7-dimethoxy-2-(4-(piperazin-1-yl)phenyl)quinolin-4-yl)cyclohexane-1,4-diamine], the IC50 was 30 nM.

As for `COc1cc2nc(-c3ccc(N4CCNCC4)cc3)cc(NCCCN)c2cc1OC` [Example 82], the IC50 came to 30 nM.

For `N[C@H]1C[C@@H](Nc2cc(-c3ccc(N4CCNCC4)cc3)nc3ccccc23)C1` [Example 83], the IC50 stood at 30 nM.

With `NCCCNc1cc(-c2ccc(-n3cc4c(n3)CNC4)cc2)nc2ccccc12` [Example 84, N^1-(2-(4-(5,6-dihydropyrrolo[3,4-c]pyrazol-2(4H)-yl)phenyl)quinolin-4-yl)propane-1,3-diamine], the IC50 amounted to 40 nM.

Take `COc1cc2nc(-c3ccc(N4CCNCC4)cc3)cc(N[C@H]3CC[C@@H](N)CC3)c2cc1OC` [Example 85]: the IC50 was determined as 40 nM.

Take `NCCCNc1cc(-c2ccc(N3CCNCC3)cc2)nc2ccccc12` [Example 86]: the IC50 was 50 nM.

For `COc1cc2nc(-c3ccc(N4CCNCC4)cc3)cc(NCCCN(C)C)c2cc1OC` [Example 87, N-(3-(dimethylamino)propyl)-6,7-dimethoxy-2-(4-(piperazin-1-yl)phenyl)quinolin-4-amine], the IC50 was 50 nM.

For the compound `CN(CCCN)CCCNc1cc(-c2cccc(N3CCNCC3)c2)nc2ccccc12` [Example 88], the IC50 came to 60 nM.

`COc1ccc(-c2cc(NC3CCC(N)CC3)c3cc(OC)c(OC)cc3n2)cc1` (stereo not shown) [Example 89]: the IC50 was 80 nM.

On to `NC1CCC(Nc2cc(-c3ccc(N4CCNCC4)cc3)nc3ccccc23)CC1` (stereo not shown) [Example 90], for which the concentration for half-maximal inhibition (IC50) was 80 nM.

With `CC(C)C(N)C(=O)N1CCN(c2ccc(-c3cc(NCCCN(C)C)c4ccccc4n3)cc2)CC1` (stereo not shown) [Example 91, 2-amino-1-(4-(4-(4-((3-(dimethylamino)propyl)amino)quinolin-2-yl)phenyl)piperazin-1-yl)-3-methylbutan-1-one], the IC50 stood at 90 nM.

With `CC(N)C(=O)N1CCN(c2ccc(-c3cc(NCCCN(C)C)c4ccccc4n3)cc2)CC1` (stereo not shown) [Example 92], the IC50 was determined as 90 nM.

For the compound `CN1CCC(n2cc(-c3cc(NCCCN)c4ccccc4n3)cn2)CC1` [Example 93], the IC50 came out at 90 nM.

On to `COc1ccc(-c2cc(NCCCN(C)CCCN)c3cc(OC)c(OC)cc3n2)cc1` [Example 94], for which the IC50 was found to be 100 nM.

As to `NCCCNc1cc(-c2ccc(C3CCNCC3)cc2)nc2ccccc12` [Example 95], the 50% inhibitory concentration (IC50) came to 110 nM.

As to `NCCCNc1cc(-c2cnn(C3CCNCC3)c2)nc2ccccc12` [Example 96], the half-maximal inhibitory concentration (IC50) was found to be 120 nM.

Regarding `COc1ccc(-c2cc(N[C@H]3C[C@H](N)C3)c3cc(OC)c(OC)cc3n2)cc1` [Example 97], the IC50 turned out to be 130 nM.

As for `CN(C)CCCNc1cc(-c2cccc(N3CCNCC3)c2)nc2ccccc12` [Example 98], the IC50 was 140 nM.

As to `CN(C)CCCNc1cc(-c2ccc(N3CCNCC3)cc2)nc2ccccc12` [Example 99, N^1,N^1-dimethyl-N3-(2-(4-(piperazin-1-yl)phenyl)quinolin-4-yl)propane-1,3-diamine], the IC50 came out at 150 nM.
